Data on 1 molecule can be found in patent EP0307279A2, “Use of (5-amino-2-(4-methyl-1-piperidinyl)phenyl)-(4-chlorophenyl)methanone as an antiviral agent” (FOURNIER INNOVATION ET SYNERGIE, priority 1987, dated 1989).

Format in all cases: cell-based
In assay [1] the test system is virus HIV 1. The assay can be described thus: Protocol 2: treatment of human lymphocytes during HIV 1 adsorption, reverse transcriptase activity in culture supernatant. The method, then: (§1) Pour chacun des trois protocoles qui suivent, on a préparé une solution mère de (5-amino-2-(4-méthyl-1-pipéridinyl)phényl)-(4-chlorophényl)-méthanone à 100 mg/l dans de l'eau physiologique contenant 9 g/l de chlorure de sodium et acidifiée à pH=3 par de l'acide chlorhydrique. La solution mère est ensuite diluée dans un milieu RPMI 1640 jusqu'à la concentration désirée. La solution ainsi obtenue est stérilisée par filtration sur membrane "MILLIPORE" ayant un diamètre moyen de pores de 0,22 m.
(§2) A partir de cellules T lymphoblastoïdes (lignée CEM) infectées par un virus HIV et donc susceptibles de produire ledit virus HIV, on recueille ce dernier par des moyens appropriés à partir d'un surnageant de culture desdites cellules.
(§3) Les cellules utilisées sont des lymphocytes de sujets normaux HIV négatifs isolés à partir du sang périphérique par gradient de Ficoll puis stimulés pendant trois jours par de la phytohémagglutinine p (en abrégé pHAp) avant leur utilisation.
(§4) Les lymphocytes sont ensuite cultivés dans le milieu RPMI 1640 contenant 10 % de sérum de veau foetal, 10 % d'interleukine II, 2 g/ml de polybrène, 1 % de glutamine, 1 % d'antibiotiques et une dilution au 1/2500 de sérum anti-interféron humain.
(§5) La production du virus HIV par des cellules T humaines traitées ou non par le produit a été régulièrement suivie par mesure de l'activité transcriptase inverse, représentative de la réplication virale, et présente dans 1 ml de surnageant de culture. On concentre 100 fois 1 ml de surnageant par ultracentrifugation puis on détermine l'activité enzymatique de cet échantillon dans 50 l d'un mélange réactionnel contenant 50 mM de tampon tris (hydroxyméthylaminométhane) de pH=7,9, 20 mM de KCl, 5 mM de MgCl₂, 1 mM de 1,4-dithiothréitol, 0,05 unité de densité optique par ml d'acide polyadénylique (5′), 0,05 unité de densité optique par ml d'acide oligodéoxythymidylique 12-18, 5 Ci de ³HTTP et 0,1 % de Triton X 100. Après une heure d'incubation à 37°C, les produits acido-insolubles sont précipités par de l'acide trichloracétique à 20 %, filtrés sur "MILLIPORE" 0,45 m, puis la radioactivité contenue dans ces produits de réaction est mesurée à l'aide d'un compteur à scintillation Kontron.
(§6) Les figures 1 à 3 qui représentent l'activité transcriptase inverse (A exprimée en cpm/ml) en fonction du temps (t exprimé en nombre de jours), comprennent chacune quatre courbes : T représentant l'activité transcriptase inverse dans la culture témoin. C₁ représentant l'activité transcriptase inverse pour la culture traitée par une dose de 0,1 g/ml de produit. C₂ représentant l'activité transcriptase inverse pour la culture traitée par une dose de 0,05 g/ml de produit, et C₃ représentant l'activité transcriptase inverse pour la culture traitée par une dose de 0,01 g/ml de produit. […]

Assay [2] relates to virus HIV 1. The assay can be described thus: Protocol 3: treatment of human lymphocytes after HIV 1 adsorption (post-treatment), reverse transcriptase activity in culture supernatant. The method, then:
as §1, §2, §3, §4, §5, §6

The subject of assay [3] is virus HIV 1. The assay can be described thus: Protocol 1: pre-treatment of human lymphocytes before HIV 1 infection, reverse transcriptase activity in culture supernatant. The method, then:
as §1, §2, §3
Les lymphocytes sont ensuite cultivés dans le milieu RPMI 1640 contenant 10 % de sérum de veau foetal, 10 % d'interleukine II, 2 g/ml de polybrène, 1 % de glutamine, 1 % d'antibiotiques et une dilution au 1/2500 de sérum anti-interféron humain. […]

For `CC1CCN(c2ccc(N)cc2C(=O)c2ccc(Cl)cc2)CC1` [produit, (5-amino-2-(4-méthyl-1-pipéridinyl)phényl)-(4-chlorophényl)-méthanone], the “inhibition du pouvoir infectieux du virus HIV 1” value is listed as “maximale” with virus HIV 1 [1] (during viral adsorption, 0,1 µg/ml (curve C1)); “partielle” in the assay on virus HIV 1 [1] (during viral adsorption, 0,01 µg/ml (curve C3)); “partielle” in the assay on virus HIV 1 [1] (during viral adsorption, 0,05 µg/ml (curve C2)). The “inhibition du pouvoir infectieux du virus HIV 1 pour les cellules T humaines” value in the assay with virus HIV 1 [1] (product present during viral adsorption (1 h, 37°C), various concentrations (curves C1 to C3), figure 2) is listed as “inhibition très significative”. Further, the “inhibition de l'infection virale” value in the assay with virus HIV 1 [2] (post-treatment for three passages after adsorption, 0,1 µg/ml (curve C1), figure 3) is “très significative”; with virus HIV 1 [2] (post-treatment, 0,01 µg/ml (curve C3)) it was “partielle”; in the assay with virus HIV 1 [2] (post-treatment, 0,05 µg/ml (curve C2)), “partielle”. In the assay with virus HIV 1 [2] (post-treatment, 0,1 g/ml, control peak / treated peak), the “rapport des pics des courbes T et C₁ (activité transcriptase inverse)” value is on record as about 10. Besides, the “inhibition du pouvoir infectieux du virus HIV 1 (activité transcriptase inverse)” value in the assay with virus HIV 1 [3] (pre-treatment 18 h before infection, human lymphocytes, whatever the dose (0,1, 0,05, 0,01 µg/ml), figure 1) was “inhibition partielle”. Further, the “retard dans l'apparition du pic de transcriptase inverse” value with virus HIV 1 [3] (pre-treatment, whatever the dose, versus untreated control culture) is reported as “retard important”.
